In brackets after ≈: the same amount, converted by molar mass.
Tests used:
K. pneumoniae A20680 = test: MIC by two-fold agar dilution; format: cell-based; conditions: Mueller-Hinton agar, unit assumed
E. coli A20732 = test: MIC by two-fold agar dilution; format: cell-based; conditions: Mueller-Hinton agar, unit assumed
C. albicans IAM 4888 = test: MIC by two-fold agar dilution; format: cell-based; conditions: Ca-1 C. albicans IAM 4888; sabouraud agar; unit assumed
S. cerevisiae IAM 4009 = test: MIC by two-fold agar dilution; format: cell-based; conditions: Sc-2 S. cerevisiae IAM 4009; sabouraud agar; unit assumed
B. subtilis PCI-219 = test: MIC by two-fold agar dilution; format: cell-based; conditions: Mueller-Hinton agar, unit assumed
[1] = test system: Mycobacterium ranae, ATCC110; test: MIC by two-fold agar dilution; format: cell-based; conditions: Medium #1001, unit assumed
K. pneumoniae D11 = test: MIC by two-fold agar dilution; format: cell-based; conditions: Mueller-Hinton agar, unit assumed
A. niger var Tieghem = test: MIC by two-fold agar dilution; format: cell-based; conditions: An-1 A. niger var Tieghem; sabouraud agar; unit assumed
C. neoformans IAM 4514 = test: MIC by two-fold agar dilution; format: cell-based; conditions: Cn-2 C. neoformans IAM 4514; sabouraud agar; unit assumed
M. flavus D12 = test: MIC by two-fold agar dilution; format: cell-based; conditions: Mueller-Hinton agar, unit assumed
C. neoformans (Cn-1) = test: MIC by two-fold agar dilution; format: cell-based; conditions: Cn-1 C. neoformans; sabouraud agar; unit assumed
P. vulgaris A9436 = test: MIC by two-fold agar dilution; format: cell-based; conditions: Mueller-Hinton agar, unit assumed
P. aeruginosa A9930 = test: MIC by two-fold agar dilution; format: cell-based; conditions: Mueller-Hinton agar, unit assumed
S. aureus A20239 = test: MIC by two-fold agar dilution; format: cell-based; conditions: Mueller-Hinton agar, unit assumed
S. marcescens A20333 = test: MIC by two-fold agar dilution; format: cell-based; conditions: Mueller-Hinton agar, unit assumed
T. mentagrophytes D-155 = test: MIC by two-fold agar dilution; format: cell-based; conditions: Tm-1 T. mentagrophytes D-155; sabouraud agar; unit assumed
C. lunata ATCC 13432 = test: MIC by two-fold agar dilution; format: cell-based; conditions: Cl-1 C. lunata ATCC 13432; sabouraud agar; unit assumed
S. aureus BX-1633,A9606 = test: MIC by two-fold agar dilution; format: cell-based; conditions: Mueller-Hinton agar, unit assumed
S. marcescens A20019 = test: MIC by two-fold agar dilution; format: cell-based; conditions: Mueller-Hinton agar, unit assumed
T. asteroides = test: MIC by two-fold agar dilution; format: cell-based; conditions: Ta-1 T. asteroides; sabouraud agar; unit assumed
P. aeruginosa A 9923 = test: MIC by two-fold agar dilution; format: cell-based; conditions: Mueller-Hinton agar, unit assumed
Mycobacterium phlei, D88 = test: MIC by two-fold agar dilution; format: cell-based; conditions: Medium #1001, unit assumed
A. fumigatus IAM 2530 = test: MIC by two-fold agar dilution; format: cell-based; conditions: Af-1 A. fumigatus IAM 2530; sabouraud agar; unit assumed
P. stuartii A20734 = test: MIC by two-fold agar dilution; format: cell-based; conditions: Mueller-Hinton agar, unit assumed
C. krusei IAM 4489 = test: MIC by two-fold agar dilution; format: cell-based; conditions: Ck-1 C. krusei IAM 4489; sabouraud agar; unit assumed
Verticillium sp. = test: MIC by two-fold agar dilution; format: cell-based; conditions: Vx-1 Verticillium sp.; sabouraud agar; unit assumed
[2] = test system: C. albicans #520 Yale A9540; test: MIC by two-fold agar dilution; format: cell-based; conditions: Ca-4 C. albicans #520 Yale A9540; sabouraud agar; unit assumed
P morganii A9553 = test: MIC by two-fold agar dilution; format: cell-based; conditions: Mueller-Hinton agar, unit assumed
Hormodendrum sp. = test: MIC by two-fold agar dilution; format: cell-based; conditions: Hy-1 Hormodendrum sp.; sabouraud agar; unit assumed
B. sphaericus #122 = test: MIC by two-fold agar dilution; format: cell-based; conditions: Mueller-Hinton agar, unit assumed
C. krusei #96 A15052 = test: MIC by two-fold agar dilution; format: cell-based; conditions: Ck-2 C. krusei #96 A15052; sabouraud agar; unit assumed
P. citrinum IAM 7008 = test: MIC by two-fold agar dilution; format: cell-based; conditions: Pt-1 P. citrinum IAM 7008; sabouraud agar; unit assumed
C. albicans Nystatin-R = test: MIC by two-fold agar dilution; format: cell-based; conditions: Ca-2 C. albicans Nystatin-R; sabouraud agar; unit assumed
P. rettgeri A15167 = test: MIC by two-fold agar dilution; format: cell-based; conditions: Mueller-Hinton agar, unit assumed
M. canis D-51 = test: MIC by two-fold agar dilution; format: cell-based; conditions: Mc-1 M. canis D-51; sabouraud agar; unit assumed
P. aeruginosa H9, D113 = test: MIC by two-fold agar dilution; format: cell-based; conditions: Mueller-Hinton agar, unit assumed
B. anthracis 115 = format: cell-based; conditions: Mueller-Hinton agar, unit assumed
E. coli K-12 A9632 = test: MIC by two-fold agar dilution; format: cell-based; conditions: Mueller-Hinton agar, unit assumed
K. pneumoniae A9678 = test: MIC by two-fold agar dilution; format: cell-based; conditions: Mueller-Hinton agar, unit assumed
E. coli Juhl A15119 = test: MIC by two-fold agar dilution; format: cell-based; conditions: Mueller-Hinton agar, unit assumed
E. coli NIHJ = test: In vivo activity in experimental mice infection; conditions: Table 12
Experimental: The in vivo activity of Bu-2231 complex was evaluated in experimental mice infections against S. aureus Smith and E. coli NIHJ. Bleomycin was tested comparatively as a reference antibiotic.
The in vivo activty of the individual components of Bu-2231 in each of the copper-free and copper complex forms was also determined in E. coli infection.

Phleomycin [reference compound]
MIC (K. pneumoniae A20680): > 100 µg/mL | MIC (E. coli A20732): 1.6 µg/mL | MIC (C. albicans IAM 4888): 3.1 µg/mL | MIC (S. cerevisiae IAM 4009): 0.8 µg/mL | MIC (B. subtilis PCI-219): < 0.0063 µg/mL | MIC [1]: 0.4 µg/mL | MIC (K. pneumoniae D11): 0.4 µg/mL | MIC (A. niger var Tieghem): 0.4 µg/mL | MIC (C. neoformans IAM 4514): 0.4 µg/mL | MIC (M. flavus D12): 0.2 µg/mL | MIC (C. neoformans (Cn-1)): 0.4 µg/mL | MIC (P. vulgaris A9436): 0.8 µg/mL | MIC (P. aeruginosa A9930): 3.1 µg/mL | MIC (S. aureus A20239): 0.4 µg/mL | MIC (S. marcescens A20333): 0.8 µg/mL | MIC (T. mentagrophytes D-155): 12.5 µg/mL | MIC (C. lunata ATCC 13432): 0.4 µg/mL | MIC (S. aureus BX-1633,A9606): 0.4 µg/mL | MIC (S. marcescens A20019): 0.8 µg/mL | MIC (T. asteroides): 6.3 µg/mL | MIC (P. aeruginosa A 9923): > 100 µg/mL | MIC (Mycobacterium phlei, D88): 0.1 µg/mL | MIC (A. fumigatus IAM 2530): 0.8 µg/mL | MIC (P. stuartii A20734): 1.6 µg/mL | MIC (C. krusei IAM 4489): 0.8 µg/mL | MIC (Verticillium sp.): 6.3 µg/mL | MIC [2]: 6.3 µg/mL | MIC (P morganii A9553): 6.3 µg/mL | MIC (Hormodendrum sp.): 0.8 µg/mL | MIC (B. sphaericus #122): 0.4 µg/mL | MIC (C. krusei #96 A15052): 0.8 µg/mL | MIC (P. citrinum IAM 7008): 3.1 µg/mL | MIC (C. albicans Nystatin-R): 1.6 µg/mL | MIC (P. rettgeri A15167): 3.1 µg/mL | MIC (M. canis D-51): 6.3 µg/mL | MIC (P. aeruginosa H9, D113): > 100 µg/mL | MIC (B. anthracis 115): 0.4 µg/mL | MIC (E. coli K-12 A9632): 1.6 µg/mL | MIC (K. pneumoniae A9678): 12.5 µg/mL | MIC (E. coli Juhl A15119): 1.6 µg/mL

Cc1c(N)nc([C@H](CC(N)=O)NC[C@@H](N)C(N)=O)nc1C(=O)N[C@H](C(=O)N[C@H](C)[C@@H](O)CC(=O)N[C@@H](C(=O)NC(O[C@@H]1O[C@@H](C)[C@@H](N)[C@@H](O)[C@H]1O)C(O)c1nc(-c2nc(C(=O)NCCCNCCCCN)cs2)cs1)[C@@H](C)O)C(O[C@@H]1O[C@@H](CO)[C@H](O)[C@@H](O)[C@@H]1O[C@H]1O[C@H](CO)[C@@H](O)[C@@H](OC(N)=O)[C@@H]1O)c1cnc[nH]1 (some centres unmarked) [Bu-2231 B Cu-free]
MIC (K. pneumoniae A20680): 25 µg/mL (≈ 15.6 µM) | MIC (E. coli A20732): 0.2 µg/mL (≈ 0.125 µM) | MIC (C. albicans IAM 4888): 0.8 µg/mL (≈ 0.499 µM) | MIC (S. cerevisiae IAM 4009): 0.2 µg/mL (≈ 0.125 µM) | MIC (B. subtilis PCI-219): < 0.0063 µg/mL | MIC [1]: 0.1 µg/mL (≈ 0.0624 µM) | MIC (K. pneumoniae D11): 0.025 µg/mL (≈ 0.0156 µM) | MIC (A. niger var Tieghem): 0.2 µg/mL (≈ 0.125 µM) | MIC (C. neoformans IAM 4514): 0.2 µg/mL (≈ 0.125 µM) | MIC (M. flavus D12): 0.4 µg/mL (≈ 0.249 µM) | MIC (C. neoformans (Cn-1)): 0.2 µg/mL (≈ 0.125 µM) | MIC (P. vulgaris A9436): 0.2 µg/mL (≈ 0.125 µM) | MIC (P. aeruginosa A9930): 0.8 µg/mL (≈ 0.499 µM) | MIC (S. aureus A20239): 0.8 µg/mL (≈ 0.499 µM) | MIC (S. marcescens A20333): 0.8 µg/mL (≈ 0.499 µM) | MIC (T. mentagrophytes D-155): 6.3 µg/mL (≈ 3.93 µM) | MIC (C. lunata ATCC 13432): 0.2 µg/mL (≈ 0.125 µM) | MIC (S. aureus BX-1633,A9606): 0.8 µg/mL (≈ 0.499 µM) | MIC (S. marcescens A20019): 0.8 µg/mL (≈ 0.499 µM) | MIC (T. asteroides): 0.8 µg/mL (≈ 0.499 µM) | MIC (P. aeruginosa A 9923): > 100 µg/mL | MIC (Mycobacterium phlei, D88): 0.05 µg/mL (≈ 0.0312 µM) | MIC (A. fumigatus IAM 2530): 0.4 µg/mL (≈ 0.249 µM) | MIC (P. stuartii A20734): 0.8 µg/mL (≈ 0.499 µM) | MIC (C. krusei IAM 4489): 0.4 µg/mL (≈ 0.249 µM) | MIC (Verticillium sp.): 1.6 µg/mL (≈ 0.998 µM) | MIC [2]: 1.6 µg/mL (≈ 0.998 µM) | MIC (P morganii A9553): 1.6 µg/mL (≈ 0.998 µM) | MIC (Hormodendrum sp.): 0.2 µg/mL (≈ 0.125 µM) | MIC (B. sphaericus #122): 0.2 µg/mL (≈ 0.125 µM) | MIC (C. krusei #96 A15052): 0.4 µg/mL (≈ 0.249 µM) | MIC (P. citrinum IAM 7008): 1.6 µg/mL (≈ 0.998 µM) | MIC (C. albicans Nystatin-R): 0.8 µg/mL (≈ 0.499 µM) | MIC (P. rettgeri A15167): 0.8 µg/mL (≈ 0.499 µM) | PD50 (E. coli NIHJ; E. coli NIHJ infection, mice, sc): 0.065 mg/kg | In vivo activity vs. E. coli NIHJ infection (x/5 mice) (E. coli NIHJ; dose (sc) 0.008): 0/5 | In vivo activity vs. E. coli NIHJ infection (x/5 mice) (E. coli NIHJ; dose (sc) 0.03): 1/5 | In vivo activity vs. E. coli NIHJ infection (x/5 mice) (E. coli NIHJ; dose (sc) 0.13): 4/5 | In vivo activity vs. E. coli NIHJ infection (x/5 mice) (E. coli NIHJ; dose (sc) 0.5): 5/5 | In vivo activity vs. E. coli NIHJ infection (x/5 mice) (E. coli NIHJ; dose (sc) 2): 5/5 | MIC (M. canis D-51): 0.8 µg/mL (≈ 0.499 µM) | MIC (P. aeruginosa H9, D113): > 100 µg/mL | MIC (B. anthracis 115): 0.1 µg/mL (≈ 0.0624 µM) | MIC (E. coli K-12 A9632): 0.1 µg/mL (≈ 0.0624 µM) | MIC (K. pneumoniae A9678): 0.4 µg/mL (≈ 0.249 µM) | MIC (E. coli Juhl A15119): 0.2 µg/mL (≈ 0.125 µM)

— patent US4051237A, “Glycopeptide antibiotics Bu-2231 A and B and process for producing same” (priority 1975, dated 1977)
